Assay results from PubChem BioAssay (NCI).
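These data come from cells grown in 96-well plates and exposed to compound for 48 hours at five concentrations. At the GI50, growth is halved. At the TGI there is no net growth.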 Where a SMILES comes first, the peptide text is derived from it.

Experiments:
Experiment in all cases: NCI-60 cell line screen, 48 h
CAKI-1 renal = tested on: CAKI-1 renal
CCRF-CEM leukemia = tested on: CCRF-CEM leukemia
DU-145 prostate = tested on: DU-145 prostate
HS 578T breast = tested on: HS 578T breast
IGROV1 ovarian = tested on: IGROV1 ovarian
M14 melanoma = tested on: M14 melanoma
NCI-H23 lung = tested on: NCI-H23 lung
RPMI-8226 leukemia = tested on: RPMI-8226 leukemia
SN12C renal = tested on: SN12C renal
T-47D breast = tested on: T-47D breast

Row | Structure (SMILES) | TGI (CAKI-1 renal) [µM] | TGI (CCRF-CEM leukemia) [µM] | TGI (DU-145 prostate) [µM] | TGI (HS 578T breast) [µM] | TGI (IGROV1 ovarian) [µM] | TGI (M14 melanoma) [µM] | TGI (NCI-H23 lung) [µM] | TGI (RPMI-8226 leukemia) [µM] | TGI (SN12C renal) [µM] | TGI (T-47D breast) [µM] | GI50 (IGROV1 ovarian) [µM] | GI50 (CAKI-1 renal) [µM] | GI50 (CCRF-CEM leukemia) [µM] | GI50 (DU-145 prostate) [µM] | GI50 (HS 578T breast) [µM] | GI50 (NCI-H23 lung) [µM] | GI50 (RPMI-8226 leukemia) [µM] | GI50 (SN12C renal) [µM] | GI50 (T-47D breast) [µM]
1 | COC(CN(C=O)[C@@H](c1ccc(Cl)cc1)c1cc2ccccc2o1)OC | 34.7 | 44 | 30.9 | 27.6 | 30.7 | 37.1 | 39.2 | 35.3 | 31.1 | 33.8 | – | – | – | – | – | – | – | – | –
2 | C1=CC(=[N+]2N=C(c3ccccc3)CC2c2ccccc2)C=CC1=C1SC(c2ccccc2)(c2ccccc2)c2ccccc21 (stereo unspecified) | – | > 100 | > 100 | > 100 | > 100 | > 100 | > 100 | – | > 100 | > 100 | – | – | – | – | – | – | – | – | –
3 | O=[N+]([O-])c1ccc2c(c1)nc(Cc1ccc(Cl)cc1)n2C[C@@H]1CCCN2CCCCC12 (stereo partly specified) | 31.7 | > 44.5 | 38.1 | 43.3 | 26.7 | 25.9 | 34.3 | > 100 | 27.6 | 36.6 | – | – | – | – | – | – | – | – | –
4 | O=C1/C(=C\c2ccc(F)cc2)CCOc2c1ccc1ccccc21 | > 81.6 | 35.9 | 98 | > 84.9 | > 100 | 82.7 | 39.4 | 9.45 | > 89.2 | > 100 | > 100 | – | – | – | – | – | – | – | –
5 | COc1cc2c(cc1OCCCCCCCCN1C(=O)c3cccc4cccc(c34)C1=O)N=C[C@@H]1CCCN1C2=O | 52.6 | 7.28 | > 100 | > 100 | 64.7 | > 100 | 36.3 | 8.53 | 63.9 | > 100 | – | – | – | – | – | – | – | – | –
6 | COC(=S)OC1CC(n2cnc3c(N)ncnc32)OC1CO[Si](C)(C)C(C)(C)C (stereo unspecified) | – | 75.9 | 38.5 | – | 43.8 | 43.3 | 38.7 | > 100 | 48.6 | 88.8 | – | – | – | – | – | – | – | – | –
7 | CCCSc1ccc2[nH]c(N3C(=O)/C(=C/c4cc(OC)c(OC)c(OC)c4)N=C3c3ccccc3)cc2c1 | > 37.5 | > 32.9 | > 37.5 | > 37.5 | > 37.5 | > 30.8 | > 37.5 | 27.1 | > 37.5 | 37 | – | – | – | – | – | – | – | – | –
8 | CSCCC(NC(=O)OCc1ccccc1)P(=O)(O)c1ccccc1 (stereo unspecified) | > 100 | > 100 | > 100 | > 100 | > 100 | > 100 | > 100 | > 100 | > 100 | > 100 | – | – | – | – | – | – | – | – | –
9 | CC(=O)c1ccc2c(c1)N(CCCN1CCN(CCO)CC1)c1ccccc1C2 | 26.9 | 28.2 | 28 | 31.2 | 31.3 | 28.3 | 30.1 | 30.1 | 31.2 | 25.9 | – | – | – | – | – | – | – | – | –
10 | Cc1ccccc1NC(=O)CC(=O)N1N=C(N2c3ccccc3Sc3ccccc32)CC1c1ccccc1 (stereo unspecified) | > 100 | – | – | – | > 100 | > 100 | > 100 | > 100 | > 100 | – | – | – | – | – | – | – | – | – | –
11 | O=C1CC2(CCC(O)(c3cccs3)C(C(=O)c3cccs3)C2)C(=O)c2ccccc2N1 (stereo unspecified) | > 100 | > 100 | > 100 | > 100 | > 100 | > 100 | > 100 | – | > 100 | > 100 | – | – | – | – | – | – | – | – | –
12 | CC(=O)Oc1ccc(CO)cc1OC(C)=O | > 100 | 76.1 | – | – | – | > 100 | – | > 100 | > 100 | – | – | – | – | – | – | – | – | – | –
13 | O=c1[nH]c(Nc2ccc(Cl)cc2)nc2nc[nH]c12 | > 100 | – | > 100 | 92.2 | > 100 | > 100 | > 100 | > 100 | > 100 | > 100 | – | – | – | – | – | – | – | – | –
14 | COc1ccc(C(=O)N(C(=O)N2CCN(c3ccccc3)CC2)S(=O)(=O)c2ccccc2)cc1 | 54.2 | > 100 | 72.2 | 79.5 | – | 42.6 | 73.2 | – | 55.9 | 54 | – | – | – | – | – | – | – | – | –
15 | CC(C)(C)[Si](C)(C)OCC1OC(n2cnc3c(N)ncnc32)CC1OS(C)(=O)=O (stereo unspecified) | > 100 | > 100 | > 100 | – | > 100 | > 100 | > 100 | > 100 | > 100 | > 100 | – | – | – | – | – | – | – | – | –
16 | O=S(=O)(O)c1cc(N=[N+]([O-])c2cc(S(=O)(=O)O)c3ccccc3c2)cc2ccccc12 | 44.4 | > 100 | 40.1 | > 100 | > 100 | > 100 | 77 | > 100 | 53.8 | > 100 | – | – | – | – | – | – | – | – | –
17 | CCC(C)C(NC(=O)C1CCCN1C(=O)C(CC(C)C)NC(=O)C(CC(C)C)NC(=O)C(N)CC(C)C)C(=O)NC(C(=O)NCC(=O)NC(CC(N)=O)C(=O)NC(CC(C)C)C(=O)NC(CC(C)C)C(=O)NC(CC(C)C)C(N)=O)C(C)C (stereo unspecified) (H-LLLPIVGNLLL-NH2; configuration not given here) | > 50 | > 50 | > 50 | > 50 | > 50 | > 50 | > 50 | > 50 | > 50 | > 50 | – | – | – | – | – | – | – | – | –
18 | Cc1cnoc1NS(=O)(=O)c1ccc(Nc2nnc(/C=C/c3c(O)ccc4ccccc34)c(=O)n2N)cc1 | 88.9 | > 100 | > 100 | > 100 | > 100 | 75.7 | 32 | 71.6 | 95.3 | 82 | – | – | – | – | – | – | – | – | –
19 | Cc1nc2ncn3c(c-2c1Cc1ccccc1)NC=C(O)N3 | > 100 | > 100 | > 100 | > 100 | 65.7 | > 100 | > 100 | > 100 | > 100 | 61.3 | – | – | – | – | – | – | – | – | –
20 | COC(=O)C[C@H](COCc1ccccc1)NC(=O)C[C@H](COCc1ccccc1)NC(=O)OC(C)(C)C | > 100 | > 100 | 44.9 | 67.1 | > 100 | > 100 | > 100 | > 100 | 80.6 | 98.7 | – | – | – | – | – | – | – | – | –
21 | CCCCCOC(=O)c1cc2cc(CCl)ccc2oc1=O | 6.3 | > 81.1 | 17.1 | > 42.8 | 27.8 | 34.8 | 17.2 | > 80.1 | 28.1 | 13.6 | – | – | – | – | – | – | – | – | –
22 | Nc1ccc(-c2nc3cc(F)ccc3s2)cc1CO | > 100 | > 100 | > 100 | > 100 | 63.4 | > 100 | 42.1 | > 100 | > 100 | > 100 | – | – | – | – | – | – | – | – | –
23 | O=C1c2ccccc2C(C2c3ccccc3C(=O)c3cc(Br)ccc32)c2ccc(Br)cc21 (stereo unspecified) | > 100 | – | > 100 | > 100 | > 100 | > 100 | > 100 | > 100 | > 100 | > 100 | – | – | – | – | – | – | – | – | –
24 | O=C(O)C(O)C(O)C(O)C(=O)CO (stereo unspecified) | > 100 | > 100 | > 100 | > 100 | > 100 | > 100 | > 100 | > 100 | > 100 | > 100 | – | – | – | – | – | – | – | – | –
25 | COC1CC(CC2CCC(C)C(C(C)C(=O)O)O2)OC2(OC(C)(C3CCC(C)(C4OC(C5OC(O)(CO)C(C)CC5C)CC4C)O3)CC2C)C1C (stereo unspecified) | 38.3 | 17.7 | > 100 | > 35.2 | 66.9 | 5.82 | 8.76 | 8.39 | 23.7 | 2.41 | – | – | – | – | – | – | – | – | –
26 | NC(=S)N1N=C(c2ccccc2O)CC1c1ccccc1 (stereo unspecified) | > 100 | > 100 | 81.3 | 72.4 | 48.6 | 24.5 | 61.3 | 39.3 | 45.3 | 68.5 | – | – | – | – | – | – | – | – | –
27 | CCCN1C(=O)CSC1=Nc1ccc2cc3ccc(N=C4SCC(=O)N4CCC)cc3nc2c1 | > 100 | > 100 | > 100 | > 100 | – | – | > 100 | > 100 | > 100 | > 100 | – | > 100 | > 100 | 30.8 | 35.8 | 71.1 | 7.4 | > 100 | 18.2
28 | N#Cc1c(N)nc2c(c1-c1ccc(Br)cc1)CSc1ccccc1-2 | 68 | 92 | > 100 | > 100 | > 100 | > 100 | > 100 | 61.1 | > 100 | 58.2 | – | – | – | – | – | – | – | – | –
29 | O=c1c2ccccc2[nH]c(=S)n1-c1ccc(N=Nc2cccc3cc(O)ccc23)cc1 | > 100 | > 100 | > 100 | > 100 | > 100 | > 100 | > 100 | > 100 | > 100 | > 100 | – | – | – | – | – | – | – | – | –
30 | CC1CN=C(NS(=O)(=O)c2cc(C(=O)Nc3ccc(F)cc3)c(Cl)cc2S)NN1 (stereo unspecified) | > 100 | > 100 | > 100 | – | > 100 | > 100 | > 100 | > 100 | > 100 | – | – | – | – | – | – | – | – | – | –
